This is an account of results in US11311565B2, “Synergistic nutritional compositions for promoting axonal regeneration” (CELAGENEX RESEARCH (INDIA) PVT. LTD., priority 2020, dated 2022).

Common to all, as to assay type: in vivo, Swiss albino mice
Experiment [1] deals with axons crossing denervated side. The experiment can be described thus: SCI animal study: subjects with >1000 axons crossing denervated side. The conditions noted are these: animals subjected to SCI; % subjects. From the text: (§1) The purpose of this study is to evaluate the effect of the test substance in Swiss albino rats.
(§2) No. of animals: 30 Animals (5 groups of 6 animals each)
(§3) Group 1 is placebo, Group 2 was given a standard treatment of antithrombotic, antiepileptic, anti-inflammatory and steroid protocol (methylprednisolone) and Group 3, Group 4 and Group 5 served as test substance. Animals were subjected to SCI and outcome measures were monitored.
4. Subjects with >1000 axons crossing denervated side—as % subjects

The subject of another experiment is NGF. The experiment can be described thus: SCI animal study: fold increase in plasticity protein NGF. The conditions noted are these: animals subjected to SCI, 6 animals per group.
Excerpt: as §1, §2, §3

In a further experiment the test system is animals subjected to SCI. The experiment can be described thus: SCI animal study: improvement of limb movements. Particulars: baseline is 1.
Excerpt: as §1, §2, §3

For the next experiment, the system named is NTF3. Nature of the experiment: SCI animal study: fold increase in plasticity protein NTF3. The conditions noted are these: animals subjected to SCI, 6 animals per group.
Excerpt: as §1, §2, §3

A further experiment relates to BDNF. The experiment can be described thus: SCI animal study: fold increase in plasticity protein BDNF. Particulars: animals subjected to SCI, 6 animals per group.
Excerpt: as §1, §2, §3

The next experiment has as its system GAP-43. Nature of the experiment: SCI animal study: fold increase in plasticity protein GAP-43. Particulars: animals subjected to SCI, 6 animals per group.
Excerpt: as §1, §2, §3

For `N=C(N)NCCCCN.O=S(=O)(O)O` [Test II, Agmatine Sulphate], the “percentage of subjects with >1000 axons crossing denervated side” value in experiment [1] worked out at 18%. Besides, the “No. of fold increase in plasticity proteins from baseline: NGF” value in the experiment with NGF worked out at 1.69 fold. In addition, the “Percentage improvement of limb movements to baseline (Baseline as 1)” value in the experiment on animals subjected to SCI is given as 0.34. Also, the “No. of fold increase in plasticity proteins from baseline: NTF3” value in the experiment with NTF3 came out at 1.17 fold. The “No. of fold increase in plasticity proteins from baseline: BDNF” value with BDNF is 2.44 fold. Also, in the experiment with GAP-43, the “No. of fold increase in plasticity proteins from baseline: GAP-43” value worked out at 3.44 fold.
